One assay concerns the target human CB2 receptors (Homo sapiens (Human), UniProt P34972). Kind of assay: cAMP assay, CHO cells expressing human CB2 receptors. The assay is classed as cell-based.
A further assay concerns the target human CB1 receptors (Homo sapiens (Human), UniProt P21554). Put plainly: cAMP assay, CHO cells expressing human CB1 receptors. The assay is classed as cell-based. In general terms: cAMP levels reflect the balance of adenylyl cyclase and phosphodiesterase activity.
The mark [1] stands for this setting: functional cAMP assay, CHO cells expressing human CB2, read-out: human CB2 EC50.
The mark [2] stands for this setting: functional cAMP assay, CHO cells expressing human CB1, read-out: human CB1 EC50.

Where two headings read alike, the source gives them in different places.

By EC50 is commonly meant the midpoint of the concentration-response curve.

Chain of human CB2 receptors (P34972 whole entry): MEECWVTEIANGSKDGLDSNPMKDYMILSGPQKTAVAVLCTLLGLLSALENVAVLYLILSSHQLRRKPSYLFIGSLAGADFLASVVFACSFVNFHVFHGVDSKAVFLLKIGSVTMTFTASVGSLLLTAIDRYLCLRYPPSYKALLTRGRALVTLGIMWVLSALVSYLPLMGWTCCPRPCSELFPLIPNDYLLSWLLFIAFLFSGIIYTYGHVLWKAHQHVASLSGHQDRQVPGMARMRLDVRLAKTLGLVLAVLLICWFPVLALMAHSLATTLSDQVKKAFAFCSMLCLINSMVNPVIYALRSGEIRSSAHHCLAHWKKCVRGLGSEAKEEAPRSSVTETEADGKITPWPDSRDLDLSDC
Chain of human CB1 receptors (P21554 whole entry): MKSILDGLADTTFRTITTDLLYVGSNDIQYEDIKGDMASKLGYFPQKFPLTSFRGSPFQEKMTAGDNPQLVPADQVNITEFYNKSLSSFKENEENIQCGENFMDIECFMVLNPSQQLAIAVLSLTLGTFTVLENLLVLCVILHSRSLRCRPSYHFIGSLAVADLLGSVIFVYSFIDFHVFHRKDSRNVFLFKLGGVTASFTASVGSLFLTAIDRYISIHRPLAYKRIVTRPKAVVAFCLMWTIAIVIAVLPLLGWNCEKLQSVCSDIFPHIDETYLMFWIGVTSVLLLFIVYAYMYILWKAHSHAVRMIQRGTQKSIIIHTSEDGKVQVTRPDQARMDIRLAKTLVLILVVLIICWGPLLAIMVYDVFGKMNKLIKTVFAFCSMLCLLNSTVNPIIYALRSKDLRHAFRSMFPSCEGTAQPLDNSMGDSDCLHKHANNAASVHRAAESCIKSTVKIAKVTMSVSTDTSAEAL

For the compound `NC(=O)CC1(NC(=O)c2ccc(N3CC(F)(F)C3)c(OCC3CC3)n2)CCN(C(=O)OCc2ccccc2)C1` (centres unmarked) [Example 83, Benzyl 3-(2-amino-2-oxoethyl)-3-[[6-(cyclopropylmethoxy)-5-(3,3-difluoroazetidin-1-yl)pyridine-2-carbonyl]amino]pyrrolidine-1-carboxylate], the EC50 at human CB2 receptors (setting [1]) is 1330 nM; on human CB1 receptors (setting [2]), over 10000 nM.

Take `NC(=O)CC1(NC(=O)c2ccc(C3(F)COC3)c(OCC3CC3)n2)CSC1` [Example 98, N-[3-(2-Amino-2-oxoethyl)thietan-3-yl]-6-(cyclopropylmethoxy)-5-(3-fluorooxetan-3-yl)pyridine-2-carboxamide]: the 50% effective concentration (EC50) on human CB2 receptors (setting [1]) is 1.2 nM; on human CB1 receptors (setting [2]), over 10000 nM.

With `NC(=O)CC(NC(=O)c1ccc(C2CC2)c(OCC2CC2)n1)C1CCOCC1` (centres unmarked) [Example 30, 5-Cyclopropyl-6-cyclopropylmethoxy-pyridine-2-carboxylic acid [2-carbamoyl-1-(tetrahydro-pyran-4-yl)-ethyl]-amide], the EC50 was 8.3 nM on human CB2 receptors (setting [1]) and over 10000 nM on human CB1 receptors (setting [2]).

On to `NC(=O)CC1(NC(=O)c2ccc(N3CC(F)(F)C3)c(OCC3CC3)n2)CCOCC1` [Example 60, 6-Cyclopropylmethoxy-5-(3,3-difluoro-azetidin-1-yl)-pyridine-2-carboxylic acid (4-carbamoylmethyl-tetrahydro-pyran-4-yl)-amide], for which the EC50 at human CB2 receptors (setting [1]) was 2.6 nM; at human CB1 receptors (setting [2]), over 10000 nM.

As for `CC(C)CSc1nc(C(=O)NC2(CC(N)=O)CS(=O)(=O)C2)ccc1C1CC1` [Example 75, N-[3-(2-Amino-2-oxoethyl)-1,1-dioxothietan-3-yl]-5-cyclopropyl-6-(2-methylpropylsulfanyl)pyridine-2-carboxamide], the EC50 was 15.8 nM at human CB2 receptors (setting [1]) and over 10000 nM on human CB1 receptors (setting [2]).

Turning to `NC(=O)CC(NC(=O)c1ccc(C2CC2)c(OCC2CC2)n1)C1CC1` (single isomer, unassigned; (+)) [Example 28, (+)-5-Cyclopropyl-6-cyclopropylmethoxy-pyridine-2-carboxylic acid (2-carbamoyl-1-cyclopropyl-ethyl)-amide], the figures for the EC50 at human CB2 receptors (setting [1]) and at human CB1 receptors (setting [2]) were 3 nM and over 10000 nM, respectively.

In the case of `NC(=O)CC1(NC(=O)c2ccc(C3CC3)c(Cc3ccc(F)cc3)n2)CNC1` [Example 81, N-[3-(2-Amino-2-oxoethyl)azetidin-3-yl]-5-cyclopropyl-6-[(4-fluorophenyl)methyl]pyridine-2-carboxamide], the EC50 at human CB2 receptors is 15 nM; at human CB1 receptors, over 10000 nM.

For `NC(=O)CC1(NC(=O)c2ccc(OC(F)(F)F)c(OCC3CC3)n2)COC1` [Example 46, 6-Cyclopropylmethoxy-5-trifluoromethoxy-pyridine-2-carboxylic acid (3-carbamoylmethyl-oxetan-3-yl)-amide], the EC50 was 31.4 nM on human CB2 receptors (setting [1]) and over 10000 nM at human CB1 receptors (setting [2]).

On to `NC(=O)CC(NC(=O)c1ccc(C2CC2)c(OCC2CC2)n1)C1CCCCC1` (single isomer, unassigned; (-)) [Example 17, (−)-5-Cyclopropyl-6-cyclopropylmethoxy-pyridine-2-carboxylic acid (2-carbamoyl-1-cyclohexyl-ethyl)-amide], for which the concentration for a half-maximal effect (EC50) on human CB2 receptors (setting [1]) is 6.2 nM; on human CB1 receptors (setting [2]) it was over 10000 nM.

Regarding `NC(=O)CC1(NC(=O)c2ccc(N3CC(F)(F)C3)c(OCC3CC3)n2)CCNC1` (centres unmarked) [Example 84, N-[3-(2-Amino-2-oxoethyl)pyrrolidin-3-yl]-6-(cyclopropylmethoxy)-5-(3,3-difluoroazetidin-1-yl)pyridine-2-carboxamide], the EC50 at human CB2 receptors (setting [1]) is 67.6 nM; on human CB1 receptors (setting [2]), over 10000 nM.

As to `CCOC(=O)C1(CNC(=O)c2ccc(N3CC(F)(F)C3)c(OCC3CC3)n2)CC1` [Example 71, Ethyl 1-[[[6-(cyclopropylmethoxy)-5-(3,3-difluoroazetidin-1-yl)pyridine-2-carbonyl]amino]methyl]cyclopropane-1-carboxylate], the results for the EC50 at human CB2 receptors (setting [1]) and at human CB1 receptors (setting [2]) were 60.6 nM and over 10000 nM, respectively.

For the compound `COC(=O)CC1(NC(=O)c2ccc(N3CC(F)(F)C3)c(OCC3CC3)n2)CNC(=O)C1` (centres unmarked) [Example 50, (3-{[6-Cyclopropylmethoxy-5-(3,3-difluoro-azetidin-1-yl)-pyridine-2-carbonyl]-amino}-5-oxo-pyrrolidin-3-yl)-acetic acid methyl ester], the half-maximal effective concentration (EC50) on human CB2 receptors (setting [1]) was 423 nM; on human CB1 receptors (setting [2]) it was over 10000 nM.

Regarding `CCOC(=O)CC1(NC(=O)c2ccc(N3CC(F)(F)C3)c(OCC3CC3)n2)CS(=O)(=O)C1` [Example 51, (3-{[6-Cyclopropylmethoxy-5-(3,3-difluoro-azetidin-1-yl)-pyridine-2-carbonyl]-amino}-1,1-dioxo-1λ6-thietan-3-yl)-acetic acid ethyl ester], the EC50 at human CB2 receptors (setting [1]) was 57 nM; at human CB1 receptors (setting [2]), over 10000 nM.

Consider `NC(=O)CC1(NC(=O)c2ccc(N3CC(F)(F)C3)c(OCC3CC3)n2)CCS(=O)(=O)CC1` [Example 63, N-[4-(2-Amino-2-oxoethyl)-1,1-dioxothian-4-yl]-6-(cyclopropylmethoxy)-5-(3,3-difluoroazetidin-1-yl)pyridine-2-carboxamide], for which the EC50 was 55.5 nM on human CB2 receptors (setting [1]) and over 10000 nM at human CB1 receptors (setting [2]).

For the compound `NC(=O)CC(NC(=O)c1ccc(C2CC2)c(OCC2CC2)n1)C(F)(F)F` (single isomer, unassigned; (-)) [Example 31, (−)-5-Cyclopropyl-6-cyclopropylmethoxy-pyridine-2-carboxylic acid (1-carbamoylmethyl-2,2,2-trifluoro-ethyl)-amide], the values for the EC50 at human CB2 receptors (setting [1]) and at human CB1 receptors (setting [2]) were 8.8 nM and over 10000 nM, respectively.

For the compound `O=C(O)CC1(NC(=O)c2ccc(N3CC(F)(F)C3)c(OCC3CC3)n2)CCC1` [Example 69, 2-[1-[[6-(Cyclopropylmethoxy)-5-(3,3-difluoroazetidin-1-yl)pyridine-2-carbonyl]amino]cyclobutyl]acetic acid], the EC50 on human CB2 receptors (setting [1]) is 302 nM; on human CB1 receptors (setting [2]) it was over 10000 nM.

Consider `NC(=O)CC1(NC(=O)c2ccc(C3CC3)c(OCC3CC3)n2)CSC1` [Example 96, N-[3-(2-Amino-2-oxoethyl)thietan-3-yl]-5-cyclopropyl-6-(cyclopropylmethoxy)pyridine-2-carboxamide], for which the results for the EC50 at human CB2 receptors (setting [1]) and at human CB1 receptors (setting [2]) were 1.8 nM and over 10000 nM, respectively.

Consider `CC(C)[C@H](CC(N)=O)NC(=O)c1ccc(N2CC(F)(F)C2)c(OCC2CC2)n1` [Example 19, 6-Cyclopropylmethoxy-5-(3,3-difluoro-azetidin-1-yl)-pyridine-2-carboxylic acid ((S)-1-carbamoylmethyl-2-methyl-propyl)-amide], for which the results for the concentration giving a half-maximal response (EC50) on human CB2 receptors (setting [1]) and on human CB1 receptors (setting [2]) were 3.2 nM and over 10000 nM, respectively.

Take `NC(=O)CC1(NC(=O)c2ccc(N3CC(F)(F)C3)c(OCC3CC3)n2)CNC1` [Example 65, N-[3-(2-Amino-2-oxoethyl)azetidin-3-yl]-6-(cyclopropylmethoxy)-5-(3,3-difluoroazetidin-1-yl)pyridine-2-carboxamide]: the results for the EC50 on human CB2 receptors (setting [1]) and at human CB1 receptors (setting [2]) were 443 nM and over 10000 nM, respectively.
